Literature values in patent US7119205B2, “Thienopyridones as AMPK activators for the treatment of diabetes and obesity” (Abbott Laboratories, priority 2003, dated 2006).

Test system: ob/ob and db/db mice
Conditions: 8 day administration

## NC(=O)c1ncn([C@@H]2O[C@H](CO)[C@@H](O)[C@H]2O)c1N [AICAR]
  reduction of blood glucose: 35%
